Results taken from patent US20070059242A1, “METHODS TO IDENTIFY THERAPEUTIC AGENTS” (priority 2005, published 2007).
Read-outs that look alike come from different tables or passages of the source.

What was measured:
[1] = tested on: WI-L2 human B-lymphocyte line; assay: LDH release cytotoxicity assay, WI-L2; type: cell-based; conditions: Homo sapiens; WIL2; LDH release, 0-100 μM, 18 h
Procedure: (§1) Cytotoxicity assays. WI-L2 human B-lymphocyte line, HAAE-1 human abdominal aortic endothelial line, MH-S murine alveolar macrophage line, and J774A.1 murine tissue macrophage line were obtained from the ATCC. Human aortic endothelial cells (HAEC) and human vascular smooth muscle cells (VSMS) were obtained from Cambrex Bio Science. Jurkat E6-1T-lymphocytes were kindly provided by Dr. J. Kaye (The Scripps Research Institute). Cells were cultured in ATCC-recommended media with 10% fetal calf serum. Cells were incubated in a controlled atmosphere at 37° C., with 5 or 7% CO2. For lactate dehydrogenase (LDH) release assays, adherent cells were harvested either by addition of 0.05% trypsin/EDTA or by scraping. The cells obtained were seeded onto 96-well microtiter plates (25,000 cells/well) and allowed to recover for 24-48 h. Cells were washed gently and media replaced with fresh media containing 5% fetal calf serum. […] Cytotoxicity was then determined by measuring lactate dehydrogenase (LDH) release from cells in culture. […] 100% Cytotoxicity was defined as the maximum amount of LDH released by dead cells as shown by trypan blue exclusion, or the highest amount of LDH detected upon lysis of cells by 0.9% Triton X-100. The IC50 values were determined by comparison of the raw duplicate data for concentration versus cytotoxicity (%) to non-linear regression analysis (Hill plot) using Graphpad v3.0 software for Macintosh.
The following cell lines were employed in this study: a human B-lymphocyte (WI-L2) described in Levy et al., Cancer 22, 517 (1968); a T-lymphocyte cell line (Jurkat E6.1) described in Weiss et al., J. Immunol. 133, 123 (1984); a vascular smooth muscle cell line (VSMC) and an abdominal aorta endothelial (HAEC) cell line described in Folkman et al., Proc. Natl. Acad. Sci. U.S.A. 76, 5217 (1979); a murine tissue macrophage (J774A.1) described in Ralph et al., J. Exp. Med. 143, 1528 (1976); and an alveolar macrophage cell line (MH-S) described in Mbawuike et al., J. Leukoc. Biol. 46, 119 (1989).

[2] = tested on: T-lymphocyte cell line (Jurkat E6.1); assay: LDH release cytotoxicity assay, Jurkat; type: cell-based; conditions: Homo sapiens; Jurkat E6.1; LDH release, 0-100 μM, 18 h
Procedure: as §1, with “h.” for “h. Cells were washed gently and media replaced with fresh media containing 5% fetal calf serum.”, “Macintosh. […]” for “Macintosh.”

[3] = tested on: vascular smooth muscle cell line (VSMC); assay: LDH release cytotoxicity assay, VSMC; type: cell-based; conditions: Homo sapiens, 18 h
Procedure: as §1, with “h.” for “h. Cells were washed gently and media replaced with fresh media containing 5% fetal calf serum.”, “Macintosh. […]” for “Macintosh.”

neuronal cell lines = assay: Cytotoxicity towards neuronal cell lines (similar procedures); type: cell-based
LDL / apoB-100 = LDL / apoB-100 (Homo sapiens, UniProt P04114); assay: Circular dichroism of LDL secondary structure; conditions: LDL 100 μg/ml with compound 10 μM, PBS pH 7.4, 37° C.
Procedure: Circular dichroism. […] Spectra were recorded in the peptidic range (200-260 nm). To increase the signal-to-noise ratio, multiple spectra (three) were averaged for each measurement.

THP-1 monocytes = assay: Monocyte morphology changes (differentiation into macrophages); type: cell-based, human; conditions: for THP-1 cell adherence (differentiation into macrophages): 12.5 or 25 μM, 7 days
Procedure: THP-1 monocytes in suspension were plated in 8-well chambered slides. […] Media containing appropriate treatment compounds was replaced after 4 days. […]

[4] = Loss of extractable 5a from stored plasma; conditions: preliminary investigations
Procedure: Plasma samples were obtained from patients (n=8) who were scheduled to undergo carotid endarterectomy within 24 h. […] Control plasma samples were obtained from random patients (n=15) attending a general medical clinic and were analyzed 7 days after collection. In a typical procedure, plasma in EDTA (1 ml) was washed with dichloromethane (DCM, 3×1 mL). The combined organic fractions were evaporated in vacuo. The residue was dissolved in methanol (0.9 mL) and a solution of 2,4-dinitrophenyl hydrazine (100 μL, 0.01 M, Lancaster) and 1N HCl in ethanol was added. Nitrogen was bubbled through the solution for 5 min and then the solution was stirred for 2 h. The resultant solution was filtered through a 0.22 μm filter and the filtrate was analyzed by the HPLC assay vide supra.

[5] = Aldolization of ketoaldehyde 4a with amino acids (1H NMR); type: physicochemical
Procedure: Aldolization of ketoaldehyde 4a with amino acids. […] To this solution was added 1 equivalent of either: a) L-proline, b) glycine, c) L-lysine hydrochloride or d) L-lysine ethyl ester dihydrochloride. At time points the samples were analyzed by ^1H NMR.

[6] = Aldolization of 4a with atherosclerotic artery and blood fractions (1H NMR); type: in vitro ADME, human
Procedure: Aldolization of secoketoaldehyde 4a with atherosclerotic artery and blood fractions. […] To this solution was added either a) atherosclerotic artery (2.1 mg) that had been homogenized in PBS (1 ml) in a tissue homogenizer and then lyophilized to dryness, b) lyophilized human blood (1 ml), c) lyophilized human plasma (1 ml) or d) PBS lyophilized (1 ml). At time points samples were removed and analyzed by ^1H NMR vide supra.

LDL / apoB-100, sequence (P04114 28-4563, species assumed): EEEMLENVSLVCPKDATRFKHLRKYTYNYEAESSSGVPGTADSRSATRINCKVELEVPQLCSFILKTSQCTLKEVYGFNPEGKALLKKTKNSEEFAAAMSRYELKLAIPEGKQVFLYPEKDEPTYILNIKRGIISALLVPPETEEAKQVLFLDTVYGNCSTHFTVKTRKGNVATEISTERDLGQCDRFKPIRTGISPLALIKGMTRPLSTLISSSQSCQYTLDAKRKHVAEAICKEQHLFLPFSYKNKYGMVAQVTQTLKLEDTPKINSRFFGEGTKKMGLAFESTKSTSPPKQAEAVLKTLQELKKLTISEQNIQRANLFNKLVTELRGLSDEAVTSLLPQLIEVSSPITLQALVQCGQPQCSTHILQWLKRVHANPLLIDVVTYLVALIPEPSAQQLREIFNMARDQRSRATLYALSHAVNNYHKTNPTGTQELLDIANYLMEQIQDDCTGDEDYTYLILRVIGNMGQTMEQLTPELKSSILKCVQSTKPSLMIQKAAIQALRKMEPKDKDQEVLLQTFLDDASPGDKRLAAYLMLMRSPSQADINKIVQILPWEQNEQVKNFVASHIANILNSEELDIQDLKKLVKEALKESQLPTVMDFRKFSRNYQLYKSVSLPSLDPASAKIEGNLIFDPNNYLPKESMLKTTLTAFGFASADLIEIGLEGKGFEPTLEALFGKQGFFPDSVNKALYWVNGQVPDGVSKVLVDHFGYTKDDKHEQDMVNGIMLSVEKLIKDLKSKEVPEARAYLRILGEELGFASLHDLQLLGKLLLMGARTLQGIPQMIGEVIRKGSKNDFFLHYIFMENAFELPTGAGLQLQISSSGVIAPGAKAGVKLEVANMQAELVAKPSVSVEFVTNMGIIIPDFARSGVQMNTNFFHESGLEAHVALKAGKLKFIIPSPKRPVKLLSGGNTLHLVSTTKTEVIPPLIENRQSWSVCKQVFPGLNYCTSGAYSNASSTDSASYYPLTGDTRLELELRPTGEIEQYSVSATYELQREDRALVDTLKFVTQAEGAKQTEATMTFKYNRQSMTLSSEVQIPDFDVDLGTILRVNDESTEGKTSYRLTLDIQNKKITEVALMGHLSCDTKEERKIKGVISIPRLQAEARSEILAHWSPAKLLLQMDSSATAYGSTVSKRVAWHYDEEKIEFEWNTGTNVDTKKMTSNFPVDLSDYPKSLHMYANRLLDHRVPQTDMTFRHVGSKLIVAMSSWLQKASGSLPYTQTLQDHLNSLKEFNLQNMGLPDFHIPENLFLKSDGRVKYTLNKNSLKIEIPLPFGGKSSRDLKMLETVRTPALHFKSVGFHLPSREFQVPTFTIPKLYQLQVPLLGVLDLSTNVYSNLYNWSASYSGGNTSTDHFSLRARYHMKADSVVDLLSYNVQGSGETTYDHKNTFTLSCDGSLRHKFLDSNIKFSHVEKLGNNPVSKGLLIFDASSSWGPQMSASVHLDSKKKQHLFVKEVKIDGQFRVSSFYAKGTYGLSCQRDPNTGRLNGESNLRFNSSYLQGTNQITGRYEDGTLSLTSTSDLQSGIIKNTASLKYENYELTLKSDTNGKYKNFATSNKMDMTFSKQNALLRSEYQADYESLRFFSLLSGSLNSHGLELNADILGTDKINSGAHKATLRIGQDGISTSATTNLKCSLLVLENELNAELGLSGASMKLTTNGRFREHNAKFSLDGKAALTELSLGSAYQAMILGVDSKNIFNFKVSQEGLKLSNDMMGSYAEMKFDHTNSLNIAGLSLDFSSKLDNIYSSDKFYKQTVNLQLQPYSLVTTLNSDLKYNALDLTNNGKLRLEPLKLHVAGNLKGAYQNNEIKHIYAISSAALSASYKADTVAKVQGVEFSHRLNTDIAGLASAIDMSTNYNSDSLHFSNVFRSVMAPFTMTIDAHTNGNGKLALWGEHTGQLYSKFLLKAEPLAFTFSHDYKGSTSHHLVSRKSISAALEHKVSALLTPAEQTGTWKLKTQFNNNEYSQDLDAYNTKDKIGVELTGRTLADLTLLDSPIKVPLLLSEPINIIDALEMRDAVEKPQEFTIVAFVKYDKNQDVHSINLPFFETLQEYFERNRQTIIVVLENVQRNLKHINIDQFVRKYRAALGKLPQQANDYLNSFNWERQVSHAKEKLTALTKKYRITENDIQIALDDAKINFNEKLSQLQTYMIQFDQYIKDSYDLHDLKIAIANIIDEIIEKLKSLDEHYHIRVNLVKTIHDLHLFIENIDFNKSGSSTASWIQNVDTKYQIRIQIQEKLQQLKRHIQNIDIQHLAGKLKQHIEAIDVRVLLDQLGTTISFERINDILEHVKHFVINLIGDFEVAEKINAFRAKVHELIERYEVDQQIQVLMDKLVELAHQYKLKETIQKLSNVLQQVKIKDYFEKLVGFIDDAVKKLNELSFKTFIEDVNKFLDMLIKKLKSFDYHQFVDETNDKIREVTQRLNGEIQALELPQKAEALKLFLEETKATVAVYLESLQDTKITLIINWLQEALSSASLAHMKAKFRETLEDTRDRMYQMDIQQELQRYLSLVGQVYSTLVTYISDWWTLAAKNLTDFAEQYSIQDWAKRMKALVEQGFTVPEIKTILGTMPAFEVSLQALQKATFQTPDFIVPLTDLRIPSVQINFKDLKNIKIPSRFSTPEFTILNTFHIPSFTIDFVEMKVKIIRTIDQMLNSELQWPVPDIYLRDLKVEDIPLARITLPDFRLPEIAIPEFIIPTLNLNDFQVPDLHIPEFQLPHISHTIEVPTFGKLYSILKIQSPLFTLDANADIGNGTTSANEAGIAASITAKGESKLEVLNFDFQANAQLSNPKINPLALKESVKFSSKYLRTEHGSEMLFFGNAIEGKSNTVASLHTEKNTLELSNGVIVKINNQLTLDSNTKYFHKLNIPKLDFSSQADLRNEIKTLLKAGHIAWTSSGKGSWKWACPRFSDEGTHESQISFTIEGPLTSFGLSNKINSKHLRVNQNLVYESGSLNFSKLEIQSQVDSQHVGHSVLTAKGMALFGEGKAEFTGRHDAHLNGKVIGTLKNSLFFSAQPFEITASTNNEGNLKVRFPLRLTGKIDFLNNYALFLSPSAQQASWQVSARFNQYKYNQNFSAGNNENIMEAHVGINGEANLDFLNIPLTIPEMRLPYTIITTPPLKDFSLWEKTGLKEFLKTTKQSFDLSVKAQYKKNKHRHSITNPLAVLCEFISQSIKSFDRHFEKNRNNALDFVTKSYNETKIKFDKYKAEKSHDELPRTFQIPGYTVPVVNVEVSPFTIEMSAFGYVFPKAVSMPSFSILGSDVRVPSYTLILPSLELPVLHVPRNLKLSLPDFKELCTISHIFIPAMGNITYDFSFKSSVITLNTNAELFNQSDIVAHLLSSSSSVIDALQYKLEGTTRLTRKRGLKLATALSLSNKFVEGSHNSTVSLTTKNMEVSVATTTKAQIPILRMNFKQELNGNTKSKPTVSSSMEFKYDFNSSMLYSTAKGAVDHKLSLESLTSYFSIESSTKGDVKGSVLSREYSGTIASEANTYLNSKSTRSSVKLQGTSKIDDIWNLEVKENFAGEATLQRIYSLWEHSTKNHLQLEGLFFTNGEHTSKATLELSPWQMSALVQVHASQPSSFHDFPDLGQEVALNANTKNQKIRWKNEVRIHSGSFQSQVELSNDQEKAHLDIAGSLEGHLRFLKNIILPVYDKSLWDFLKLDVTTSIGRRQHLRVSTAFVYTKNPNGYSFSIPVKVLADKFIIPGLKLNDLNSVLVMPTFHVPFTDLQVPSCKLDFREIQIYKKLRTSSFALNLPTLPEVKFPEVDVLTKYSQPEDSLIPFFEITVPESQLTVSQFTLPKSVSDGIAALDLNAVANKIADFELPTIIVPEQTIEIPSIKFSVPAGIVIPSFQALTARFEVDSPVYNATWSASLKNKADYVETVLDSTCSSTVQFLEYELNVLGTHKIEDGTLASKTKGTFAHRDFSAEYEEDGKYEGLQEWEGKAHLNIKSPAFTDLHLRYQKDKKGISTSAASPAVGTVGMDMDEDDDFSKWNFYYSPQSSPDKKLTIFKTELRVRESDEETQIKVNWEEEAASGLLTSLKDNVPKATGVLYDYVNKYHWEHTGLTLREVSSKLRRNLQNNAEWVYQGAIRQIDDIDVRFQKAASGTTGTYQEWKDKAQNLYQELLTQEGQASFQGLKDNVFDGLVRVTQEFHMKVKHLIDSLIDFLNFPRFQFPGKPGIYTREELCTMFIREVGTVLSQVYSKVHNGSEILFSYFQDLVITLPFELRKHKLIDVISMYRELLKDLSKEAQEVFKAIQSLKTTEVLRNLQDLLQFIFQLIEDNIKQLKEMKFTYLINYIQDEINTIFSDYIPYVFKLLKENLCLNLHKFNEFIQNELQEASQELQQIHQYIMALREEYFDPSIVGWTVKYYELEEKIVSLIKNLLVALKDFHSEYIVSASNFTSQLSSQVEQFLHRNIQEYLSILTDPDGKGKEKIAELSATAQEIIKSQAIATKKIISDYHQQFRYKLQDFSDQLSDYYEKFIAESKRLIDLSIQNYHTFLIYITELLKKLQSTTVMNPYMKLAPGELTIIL

| SMILES | IC50 [1] [µM] | IC50 [2] [µM] | IC50 [3] [µM] | cytotoxic towards neuronal cell lines (neuronal cell lines) | random coil of LDL (LDL / apoB-100) [%] | α helical structure of LDL (LDL / apoB-100) [%] | concentration that causes THP-1 cell differentiation (THP-1 monocytes) [µM] | THP-1 cell adherence (differentiation into macrophages) (THP-1 monocytes) | decrease of amount that can be extracted from plasma [4] | IC50 ([3]; LDH release, 0-100 μM, read-out: IC50) [µM] | aldolization of 4a ([5]; DMSO-d6 (800 μl) and D2O (80 μl) alone) | conversion of 4a into 5a ([5]; Gly, 24 h) | conversion of 4a into 5a ([5]; L-Lys(OEt).2HCl, 100 h) [%] | conversion of 4a into 5a ([5]; L-Lys.HCl, 24 h) | conversion of 4a into 5a ([5]; L-Pro, 2 h) | conversion of 4a into 5a ([6]; extracts from atheromatous arteries, 22 h) | aldolization of 4a ([6]; lyophilized PBS) | conversion of 4a into 5a ([6]; plasma, 15 h) | conversion of 4a into 5a ([6]; serum, 15 h) | conversion of 4a into 5a ([6]; whole blood, 15 h) |
| --- | --- | --- | --- | --- | --- | --- | --- | --- | --- | --- | --- | --- | --- | --- | --- | --- | --- | --- | --- | --- |
| CC(C)CCC[C@@H](C)[C@H]1CCC2C3C(CC[C@@]21C)[C@@]1(C)CC[C@H](O)C[C@@]1(O)[C@@H]3C=O (stereo partly drawn) [5a, 3β-Hydroxy-5β-hydroxy-B-norcholestane-6β-carboxaldehyde] | 17.7 ± 2.3 | 12.6 ± 1.9 | 29.8 ± 2.8 | cytotoxic | 32±4 | ~20±2 | 25 | began to adhere after 4 days | about 5 % per day |  |  |  |  |  |  |  |  |  |  |  |
| CC(C)CCC[C@@H](C)[C@H]1CCC2C(CC=O)C([C@@]3(C)CC[C@H](O)CC3=O)CC[C@@]21C (stereo partly drawn) [4a, 3β-Hydroxy-5-oxo-5,6-secocholestan-6-al] | 10.9 ± 1.6 |  |  | cytotoxic | ~39±2 | ~23±5 |  | induced no cell adherence |  | 21.9 ± 2.2 | no aldolization | complete conversion | 62 | complete conversion | complete conversion | complete conversion | no aldolization | complete conversion | complete conversion | complete conversion |
